Test results published in patent US6509163B1, “Methods of screening modulators of mammalian P2X7 purinergic receptors” (Glaxo Group Limited, priority 1997, dated 2003).

Experiments:
[1] = target: T1, h-rP2X7 (human 1-346, rat 347-595) (Homo sapiens, UniProt Q99572, A348T/A433Q/A445S/A505Q/C493A/C552S/D356N/D438E/D448H/D537E/D539E/E585Q/F350C/F353L/F525L/G559V/H366R/H491R/H521E/I367V/I459M/K464I/K501R/L354I/L516I/M434T/N361T/N413D/P443S/Q375E/R410W/R419K/R463Q/R514S/R544K/R576K/S359A/S390P/S407P/S481N/S490N/S540A/S584T/S593Y/T437L/T449S/T467V/T541I/V378A/V475D/V522A/V538G/W370S); assay: Whole-cell recordings in HEK293 cells expressing chimeric h-rP2X7 receptors; type: cell-based; conditions: low divalent concentrations, after removal of BzATP, n=10
T1 construct: h-rP2X7 (human 1-346, rat 347-595); expressed in transfected cells; host or cells: HEK293 (transient)
T1 sequence (Q99572 1-595 A348T/F350C/F353L/L354I/D356N/S359A/N361T/H366R/I367V/W370S/Q375E/V378A/S390P/S407P/R410W/N413D/R419K/A433Q/M434T/T437L/D438E/P443S/A445S/D448H/T449S/I459M/R463Q/K464I/T467V/V475D/S481N/S490N/H491R/C493A/K501R/A505Q/R514S/L516I/H521E/V522A/F525L/D537E/V538G/D539E/S540A/T541I/R544K/C552S/G559V/R576K/S584T/E585Q/S593Y): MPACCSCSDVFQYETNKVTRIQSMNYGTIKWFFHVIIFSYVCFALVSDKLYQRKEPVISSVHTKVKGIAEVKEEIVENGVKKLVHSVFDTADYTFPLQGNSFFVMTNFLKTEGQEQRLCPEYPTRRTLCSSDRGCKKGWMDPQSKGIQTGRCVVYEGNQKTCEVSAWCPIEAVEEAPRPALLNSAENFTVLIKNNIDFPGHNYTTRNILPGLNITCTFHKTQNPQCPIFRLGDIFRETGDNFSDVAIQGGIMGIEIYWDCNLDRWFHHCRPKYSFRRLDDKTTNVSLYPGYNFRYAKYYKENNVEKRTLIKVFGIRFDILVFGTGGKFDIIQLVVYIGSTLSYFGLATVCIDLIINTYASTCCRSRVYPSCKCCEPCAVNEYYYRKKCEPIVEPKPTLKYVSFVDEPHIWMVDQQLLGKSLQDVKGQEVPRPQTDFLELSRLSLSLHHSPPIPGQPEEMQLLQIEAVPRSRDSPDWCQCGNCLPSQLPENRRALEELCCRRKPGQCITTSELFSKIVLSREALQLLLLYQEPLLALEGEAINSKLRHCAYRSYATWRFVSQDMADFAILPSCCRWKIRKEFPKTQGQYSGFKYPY
Excerpt: Chimeras. A silent restriction site (NheI) was introduced at the equivalent positions in the rat and human cDNAs using the Pfu mutagenesis kit (Stratagene) (T to G at 1069 in rP2X7; G to A at 1072 in hP2X7) . A NheI-XhoI fragment corresponding to 3′ extremity of each cDNA was then excised and subcloned in the opposite plasmid (i.e. human 3′ end into rat background). The resulting chimeras were h-rP2X7 (human 1-346, rat 347-595) and r-hP2X7 (rat 1-346, human 347-595) (FIG. 5). All constructions were sequenced on their entire coding region.
Cell culture. HEK293 cells were transiently transfected with cDNA (1 μg/ml) and lipofectin dissolved in Optimem (GIBCO) placed into petri dishes containing four coverslips onto which cells were plated at a density of about 8×10^4/coverslip. Cells were washed 5 h later and normal DMEM applied. Electrophysiological studies or dye uptake measurements were carried out 18-49 h later. For each set of transfections, parallel experiments were performed on HEK cells transfected with cDNA encoding both rP2X7 and hP2X7 receptors.
Electrophysiological experiments. Whole-cell recordings were made using the EPC9 patch-clamp amplifier and Pulse acquisition programs (HEKA, Lambrecht, Germany). Patch pipettes (5-7 MΩ) contained (mM) CsCl or NaCl 154, EGTA 10, HEPES 5. […]

[2] = target: T2, P2X7 receptor (Rattus norvegicus, UniProt Q64663); assay: YO-PRO-1 uptake, cell counts, in HEK cells stably expressing P2X7 receptor; type: cell-based; conditions: incubation with BzATP for 3 to 5 min, low concentration of divalent cations
T2 construct: yielding a construct that encoded the entire P2X7 protein; expressed in transfected cells
T2 sequence (Q64663 1-595): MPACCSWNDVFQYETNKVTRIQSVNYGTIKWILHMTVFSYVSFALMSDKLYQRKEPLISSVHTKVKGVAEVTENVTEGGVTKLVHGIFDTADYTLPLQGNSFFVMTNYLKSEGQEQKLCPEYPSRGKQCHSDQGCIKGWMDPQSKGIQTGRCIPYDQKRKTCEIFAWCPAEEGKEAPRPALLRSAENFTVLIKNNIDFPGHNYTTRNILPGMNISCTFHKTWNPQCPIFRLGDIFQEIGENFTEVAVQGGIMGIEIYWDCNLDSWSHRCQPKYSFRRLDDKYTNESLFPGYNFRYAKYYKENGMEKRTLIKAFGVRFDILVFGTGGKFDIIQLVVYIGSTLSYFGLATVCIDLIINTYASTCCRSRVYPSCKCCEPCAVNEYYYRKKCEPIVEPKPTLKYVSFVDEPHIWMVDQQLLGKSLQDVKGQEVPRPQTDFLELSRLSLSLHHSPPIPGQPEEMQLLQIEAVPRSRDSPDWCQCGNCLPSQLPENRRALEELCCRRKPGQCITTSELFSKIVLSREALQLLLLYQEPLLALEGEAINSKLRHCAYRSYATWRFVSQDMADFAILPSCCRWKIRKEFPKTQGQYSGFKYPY
Procedure: YO-PRO-1 (10 μM; Molecular Probes, Eugene, Oreg.) was added to the superfusion fluid during electrophysiological recordings 3 to 6 min before switching to low divalent solution and washed out upon switching back to normal divalent solution, after which the fluorescent lamp was turned on and cells were examined with a fluorescein isothiocyanate filter. For cell counts, 500 cells per cover slip were counted in each case.

current measured at 30 s, of peak [1]: 70±4 | stably transfected cells that took up YO-PRO-1 [2]: > 85%
SMILES: Nc1ncnc2c1ncn2[C@@H]1O[C@H](COP(=O)(O)OP(=O)(O)OP(=O)(O)O)[C@@H](OC(=O)c2ccc(C(=O)c3ccccc3)cc2)[C@H]1O [BzATP, 3′-O-(4-benzoyl)benzoyl ATP]
